18 compounds from patent publication US7411064B2, “1-Heterocyclylalkyl-3-sulfonylazaindole or -azaindazole derivatives as 5-hydroxytryptamine-6 ligands” (Wyeth, priority 2002, dated 2008) can be followed below.

Where a name gives a salt, the structure may show the parent alone.

Chain of human cloned 5-HT6 receptors (P50406 whole entry): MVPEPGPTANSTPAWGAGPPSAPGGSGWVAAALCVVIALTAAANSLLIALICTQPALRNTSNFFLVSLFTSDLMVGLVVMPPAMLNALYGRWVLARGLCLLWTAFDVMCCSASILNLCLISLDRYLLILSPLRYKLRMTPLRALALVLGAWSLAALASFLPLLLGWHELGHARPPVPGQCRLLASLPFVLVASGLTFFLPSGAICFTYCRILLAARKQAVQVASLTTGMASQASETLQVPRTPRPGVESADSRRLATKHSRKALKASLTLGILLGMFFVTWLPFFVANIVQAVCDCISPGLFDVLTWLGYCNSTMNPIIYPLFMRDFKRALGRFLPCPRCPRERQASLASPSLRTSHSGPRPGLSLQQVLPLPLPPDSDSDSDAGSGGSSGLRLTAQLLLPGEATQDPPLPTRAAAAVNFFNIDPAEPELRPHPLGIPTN

System in one data set: not given
In general, melting point refers to the temperature, or range, at which the solid turns liquid. The compound `O=S(=O)(c1ccccc1)c1cn(CC2CCCN2Cc2ccccc2)c2ncccc12` (stereo not shown) (as salt: hydrochloride) [Example 9] yielded a melting point of 218 to 220 °C.
The same measure, in the same setting: to `O=S(=O)(c1cccc(F)c1)c1cn(CC2CCCN2Cc2ccccc2)c2ncccc12` (stereo not shown) (as salt: hydrochloride) [Example 10] belongs 128 to 129 °C; to `O=S(=O)(c1cccc(F)c1)c1cn(CC2CCCN2)c2ncccc12` (stereo not shown) (as salt: hydrochloride) [Example 11], 181 to 182 °C; to `CN1CCCC1Cn1cc(S(=O)(=O)c2cccc(F)c2)c2cccnc21` (stereo not shown) (as salt: hydrochloride) [Example 12], 208 to 209 °C.
Same read-out and setting: to `O=S(=O)(c1cn(CC2CCCN2)c2ncccc12)c1c(Cl)nc2sccn12` (stereo not shown) (as salt: hydrochloride) [Example 14] belongs 246 to 247 °C; to `O=S(=O)(c1ccc(Cl)s1)c1cn(CC2CCCN2)c2ncccc12` (stereo not shown) (as salt: hydrochloride) [Example 15], 106 to 107 °C.
Same read-out and setting: the figure for `O=S(=O)(c1cn(CC2CCCN2Cc2ccccc2)c2ncccc12)c1c(Cl)nc2sccn12` (stereo not shown) [Example 13] is 102 to 103 °C.

A further data set concerns the target human cloned 5-HT6 receptors (Homo sapiens, UniProt P50406).
For orientation: Ki means the equilibrium dissociation constant of an inhibitor or competing ligand from its target. A higher Ki goes with weaker binding. `O=S(=O)(c1ccccc1)c1cn(C[C@H]2CCCN2)c2ncccc12` [Example 3, 3-(Phenylsulfonyl)-1-[(2R)-pyrrolidin-2-ylmethyl]-1H-pyrrolo[2,3-b]pyridine Hydrochloride]: the Ki came out at 12 nM.
On the same count and under the same terms, the figure for `O=S(=O)(c1ccccc1)c1cn(C[C@@H]2CCCN2)c2ncccc12` [Example 4, 3-(Phenylsulfonyl)-1-[(2S)-pyrrolidin-2-ylmethyl]-1H-pyrrolo[2,3-b]pyridine Hydrochloride] is 66 nM; for `O=S(=O)(c1cccc(Cl)c1)c1cn(CC2CCCN2Cc2ccccc2)c2ncccc12` (stereo not shown) [Example 6, 1-[(1-Benzylpyrrolidin-2-yl)methyl]-3-(3-chlorophenylsulfonyl)-1H-pyrrolo[2,3-b]pyridine] it is 132 nM; for `O=S(=O)(c1cccc(Cl)c1)c1cn(CC2CCCN2)c2ncccc12` (stereo not shown) [Example 7, 3-(3-Chlorophenylsulfonyl)-1-(pyrrolidin-2-ylmethyl)-1H-pyrrolo[2,3-b]pyridine] it is 3 nM.
The same measure, in the same setting: the figure for `CN1CCCC1Cn1cc(S(=O)(=O)c2cccc(Cl)c2)c2cccnc21` (stereo not shown) [Example 8, 3-(3-Chlorophenylsulfonyl)-1-[(1-methylpyrrolidin-2-yl)methyl]-1H-pyrrolo[2,3-b]pyridine Hydrochloride] is 7 nM.
The same measure, in the same setting: the figure for `O=S(=O)(c1ccccc1)c1cn(CC2CCCN2Cc2ccccc2)c2ncccc12` (stereo not shown) [Example 9] is 163 nM; for `O=S(=O)(c1cccc(F)c1)c1cn(CC2CCCN2Cc2ccccc2)c2ncccc12` (stereo not shown) [Example 10] it is 174 nM; for `O=S(=O)(c1cccc(F)c1)c1cn(CC2CCCN2)c2ncccc12` (stereo not shown) [Example 11] it is 9 nM.
Consider `CN1CCCC1Cn1cc(S(=O)(=O)c2cccc(F)c2)c2cccnc21` (stereo not shown) [Example 12], for which the Ki was 6 nM.
The same measure, in the same setting: the figure for `O=S(=O)(c1cn(CC2CCCN2Cc2ccccc2)c2ncccc12)c1c(Cl)nc2sccn12` (stereo not shown) [Example 13] is 57 nM; for `O=S(=O)(c1cn(CC2CCCN2)c2ncccc12)c1c(Cl)nc2sccn12` (stereo not shown) [Example 14] it is 2 nM.
On the same count and under the same terms, the figure for `O=S(=O)(c1ccc(Cl)s1)c1cn(CC2CCCN2)c2ncccc12` (stereo not shown) [Example 15] is 7 nM.
